Results taken from US8551445B2, “Preparation and use of alkylating agents” (The Queen's Medical Center, priority 2003, dated 2013).

Key:
[1] = Culture of final purified solutions for microorganism growth (sterility); conditions: 1 mL of final purified solution in physiologic saline; enriched thioglycollate at 37° C. and trypticase soy broth at 23° C.; 2 weeks
Experimental: The final purified solutions in physiologic saline [^18F]FCH and [^18F]FECh were cultured (1 mL) for microorganisms for growth in enriched thioglycollate at 37° C. and trypticase soy broth media at 23° C. […] A positive control standard is always included in the assay. [^18F]FCH is currently in an FDA approved pre-clinical IND safety trial in humans.

[2] = LAL pyrogen test (Charles River Labs Endosafe); conditions: final purified solutions in physiologic saline
[3] = FDA approved pre-clinical IND safety trial in humans; type: in vivo; conditions: after about fifty trials

| Compound | growth of microorganisms in culture [1] | pyrogens (LAL) [2] | adverse effects [3] |
| --- | --- | --- | --- |
| C[N+](C)(CCO)CC[18F] [[^18F]FECh, [^18F]N,N-Dimethyl-N-fluoroethylethanolamine] | No growth | pyrogen free |  |
| C[N+](C)(C[18F])CCO [[^18F]FCH, [^18F]N,N-Dimethyl-N-fluoromethylethanolamine] | No growth | pyrogen free | no adverse effects |
